SMILES strings stand for the structures. The source made the active and inactive calls. The calls are words filed in the database; no cut-off is given here.

A short description of data set [1]: Antioxidant activity of the compound in AAPH solution assessed as trolox equivalents for reduction of oxidative degradation by ORAC assay. The class given is physicochemical.
The species named for data set [2] is Homo sapiens. As to the kind of experiment: Anti-inflammatory in human articular chondrocytes assessed as inhibition of IL-1beta-induced reduction of GAG level after 72 hrs by spectrophotometry analysis. The data set is classed as functional, cell-based.
Data set [3] addresses Collagenase 3 (Homo sapiens, UniProt P45452). As to the kind of experiment: Inhibition of MMP13 (unknown origin) using Pro-Leu-Gly-Leu-Dpa-Ala-Arg-NH2 as substrate after 3 mins by fluorimetric assay.
Data set [4] in a line: Cytotoxicity against human articular chondrocytes assessed as cell viability at 2.5 to 10 uM by MTT assay.
The species entered for data set [5] is Homo sapiens. As to the kind of experiment: Anti-inflammatory in human articular chondrocytes assessed as inhibition of IL-1beta-induced NFkappa-B p65 production at 2.5 to 10 uM after 72 hrs by Western blot analysis. The data set is classed as functional, cell-based. For orientation: Immunoblotting shows a protein as a band on a membrane.
For data set [6], the species on record is Homo sapiens. The data set can be described thus: Anti-inflammatory in human articular chondrocytes assessed as inhibition of IL-1beta-induced nitrite production after 72 hrs by Griess assay. The data set is classed as functional, cell-based. A general note: Nitrite, measured by Griess reagent, commonly stands in for NO production.
Data set [7] is filed under the species Homo sapiens. The data set can be described thus: Anti-inflammatory in human articular chondrocytes assessed as inhibition of IL-1beta-induced ICAM-1 production at 2.5 to 10 uM after 72 hrs by Western blot analysis. The class given is functional, cell-based.
Data set [8] has as its target Stromelysin-1 (Homo sapiens, UniProt P08254). The data set can be described thus: Inhibition of MMP3 (unknown origin) using Pro-Leu-Gly-Leu-Dpa-Ala-Arg-NH2 as substrate after 3 mins by fluorimetric assay.

Chain of Stromelysin-1 (P08254 whole entry): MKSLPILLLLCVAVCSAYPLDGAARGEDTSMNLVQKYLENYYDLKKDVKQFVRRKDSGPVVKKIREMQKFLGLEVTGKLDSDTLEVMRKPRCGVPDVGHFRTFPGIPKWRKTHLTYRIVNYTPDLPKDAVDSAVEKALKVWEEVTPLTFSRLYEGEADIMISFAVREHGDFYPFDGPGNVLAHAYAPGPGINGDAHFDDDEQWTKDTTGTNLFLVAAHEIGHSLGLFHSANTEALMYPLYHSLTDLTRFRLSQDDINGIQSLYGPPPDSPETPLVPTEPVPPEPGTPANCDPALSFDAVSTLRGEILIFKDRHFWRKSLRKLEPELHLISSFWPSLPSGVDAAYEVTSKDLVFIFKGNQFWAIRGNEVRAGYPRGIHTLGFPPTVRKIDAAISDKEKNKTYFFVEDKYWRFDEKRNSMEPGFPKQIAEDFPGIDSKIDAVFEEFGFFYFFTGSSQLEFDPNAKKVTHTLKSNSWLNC

In general, IC50 refers to the point on the concentration scale where inhibition reaches its midpoint. Turning to `O=C(O)CN1C(=O)/C(=C/c2cccc(OCc3ccccc3)c2)SC1=S`, the results for the Activity in data set [1] and in data set [4] were 0.65 µM and “Non-toxic”, respectively. For the same compound, the inhibition entry in data set [2] and in data set [6] was “Dose-dependent effect” throughout. The IC50 in data set [3] was found to be 1.59 µM; in data set [8] (read-out: IC50), 4.19 µM. Further, the inhibition result in data set [5] and in data set [7] was “Active” in each case.

Turning to `O=C1NC(=S)S/C1=C\c1cccc(Oc2ccccc2)c1`, the figures for the Activity in data set [1] and in data set [4] were 0.39 µM and “Non-toxic”, respectively. Also, the inhibition result in data set [2] and in data set [6] was “Dose-dependent effect” each time. The IC50 stood at 55.3 µM in data set [3] and 17.5 µM in data set [8] (read-out: IC50). In addition, the inhibition result in data set [5] and in data set [7] was “Active” each time.

As for `O=C(O)CN1C(=O)/C(=C/c2cccc(Oc3ccccc3)c2)SC1=S`, the Activity in data set [1] was 0.61 µM; in data set [4], “Non-toxic”. For the same compound, the inhibition result in data set [2] and in data set [6] was “Dose-dependent effect” in each case. Further, the IC50 worked out at 4.7 µM in data set [3] and 14.2 µM in data set [8] (read-out: IC50). Moreover, the inhibition entry in data set [5] and in data set [7] was “Active” each time.

For the compound `O=C1NC(=S)S/C1=C\c1ccc(OCc2ccccc2)cc1`, the figures for the Activity in data set [1] and in data set [4] were 0.6 µM and “Non-toxic”, respectively. Also, the inhibition entry in data set [2] and in data set [6] was “Dose-dependent effect” each time. Besides, the figures for the half-maximal inhibitory concentration (IC50) in data set [3] and in data set [8] (read-out: IC50) were 0.64 µM and 77.4 µM, respectively. Further, the inhibition entry in data set [5] and in data set [7] was “Active” each time.

Take `O=C1NC(=S)S/C1=C\c1cccc(OCc2ccccc2)c1`: the Activity is 0.63 µM in data set [1] and “Non-toxic” in data set [4]. Further, the inhibition entry in data set [2] and in data set [6] was “Dose-dependent effect” in each case. Also, the IC50 is 5.89 µM in data set [3] and “Not Active” in data set [8]. The inhibition result in data set [5] and in data set [7] was “Active” throughout.

With `O=C(O)CN1C(=O)/C(=C/c2ccc(OCc3ccccc3)cc2)SC1=S`, the Activity was 1.078 µM in data set [1] and “Non-toxic” in data set [4]. The inhibition entry in data set [2] and in data set [6] was “Dose-dependent effect” in each case. The half-inhibitory concentration (IC50) in data set [3] was found to be 6.97 µM; in data set [8] (read-out: IC50), 58.5 µM. Also, the inhibition entry in data set [5] and in data set [7] was “Active” throughout.

Regarding `O=C(O)CN1C(=O)/C(=C/c2ccc(Oc3ccccc3)cc2)SC1=S`, the Activity is 0.76 µM in data set [1] and “Non-toxic” in data set [4]. Besides, the inhibition entry in data set [2] and in data set [6] was “Dose-dependent effect” each time. Also, the half-inhibitory concentration (IC50) in data set [3] is 3.8 µM; in data set [8] (read-out: IC50), 8.96 µM. The inhibition result in data set [5] and in data set [7] was “Active” in each case.

As for `O=C1NC(=S)S/C1=C\c1ccc(Oc2ccccc2)cc1`, the Activity in data set [1] was 0.52 µM; in data set [4], “Non-toxic”. Moreover, the inhibition result in data set [2] and in data set [6] was “Dose-dependent effect” in each case. For the same compound, the IC50 in data set [3] amounted to 3.99 µM; in data set [8] (read-out: IC50), 48.4 µM. Moreover, the inhibition entry in data set [5] and in data set [7] was “Active” in each case.

Values taken from ChEMBL document CHEMBL3739381, “Evaluation of the anti-inflammatory/chondroprotective activity of aldose reductase inhibitors in human chondrocyte cultures” (Medchemcomm, 2015).
